Assay results as given in paper PMC5538713, “RORγt and RORα signature genes in human Th17 cells” (PLoS ONE, 2017).
Like-named read-outs stand apart in the source and are kept apart here.

Tests used:
[1] = system: OP2; assay: Cerep selectivity panel; format: binding
[2] = system: ML1; assay: Cerep selectivity panel; format: binding
[3] = system: CI Channel; assay: Cerep selectivity panel; format: binding
[4] = biological target: T1, M3 (h) (Homo sapiens, UniProt P20309); assay: Cerep selectivity panel; format: binding; settings: for inhibition at 10 µM: read-out: % Inhibition at 10µM; for inhibition at 1 µM: read-out: % Inhibition at 1µM
T1 construct: purchased Cerep
Protocol: (§1) Supplementary file pone.0181868.s003.docx: S3 Table Selectivity profile of RORγt inverse agonists A, B, C and D. Compounds were evaluated at 1 μM and 10 μM in a panel of assays against 50 receptors, ion channels and transporters (Profile service by Cerep Inc.). (DOCX) Click here for additional data file.
(§2) S3 Table. RORɣt inverse agonists A, B, C and D were evaluated at 1 µM and 10 µM in a panel of assays against 50 receptors, ion channels and transporters (Profile service by Cerep Inc.).

[5] = biological target: T2, 5HT5A (h) (Homo sapiens, UniProt P47898); assay: Cerep selectivity panel; format: binding; settings: for inhibition at 1 µM: read-out: % Inhibition at 1µM; for inhibition at 10 µM: read-out: % Inhibition at 10µM
T2 construct: purchased Cerep
Protocol: as §1, §2

[6] = biological target: T3, D2S (h) (Homo sapiens, UniProt P14416); assay: Cerep selectivity panel; format: binding; settings: for inhibition at 1 µM: read-out: % Inhibition at 1µM; for inhibition at 10 µM: read-out: % Inhibition at 10µM
T3 construct: purchased Cerep
Protocol: as §1, §2

[7] = biological target: T4, OP1 (h) (Homo sapiens, UniProt P41143); assay: Cerep selectivity panel; format: binding; settings: for inhibition at 1 µM: read-out: % Inhibition at 1µM; for inhibition at 10 µM: read-out: % Inhibition at 10µM
T4 construct: purchased Cerep
Protocol: as §1, §2

[8] = biological target: T5, CXCR2 (h) (Homo sapiens, UniProt P25025); assay: Cerep selectivity panel; format: binding; settings: read-out: % Inhibition at 10µM
T5 construct: purchased Cerep
T5 sequence (P25025 1-360): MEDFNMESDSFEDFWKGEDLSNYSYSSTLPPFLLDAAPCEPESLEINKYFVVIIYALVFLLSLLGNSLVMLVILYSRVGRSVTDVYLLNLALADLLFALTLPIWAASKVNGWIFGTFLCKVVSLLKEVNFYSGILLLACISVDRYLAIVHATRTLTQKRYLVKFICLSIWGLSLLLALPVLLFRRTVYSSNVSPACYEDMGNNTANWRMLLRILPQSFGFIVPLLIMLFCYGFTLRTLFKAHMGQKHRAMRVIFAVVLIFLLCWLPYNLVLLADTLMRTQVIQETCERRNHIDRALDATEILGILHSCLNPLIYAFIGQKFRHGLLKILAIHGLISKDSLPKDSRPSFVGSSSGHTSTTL
Protocol: as §1, §2

[9] = biological target: T6, RORβ LBD (Homo sapiens, UniProt Q92753); assay: ThermoFluor binding assay, RORβ LBD
T6 construct: made in house; host or cells: E. coli BL21DE3 GOLD, pET24a
T6 sequence (Q92753 201-452 isoform Q92753-1): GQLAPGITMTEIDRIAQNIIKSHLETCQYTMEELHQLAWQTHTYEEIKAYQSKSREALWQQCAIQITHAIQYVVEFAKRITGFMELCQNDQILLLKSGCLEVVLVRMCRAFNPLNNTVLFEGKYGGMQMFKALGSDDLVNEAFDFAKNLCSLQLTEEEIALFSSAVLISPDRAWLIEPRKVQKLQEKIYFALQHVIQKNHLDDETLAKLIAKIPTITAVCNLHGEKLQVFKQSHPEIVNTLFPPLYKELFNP
Protocol: (§3) Recombinant human RORγ, RORα and RORβ LBD proteins were prepared for ThermoFlour binding assay. The nucleotide sequences encoding the ligand binding domains (LBD) of human RORγ (Genbank accession no. NP005051, amino acid 237–497), RORα (Genbank accession no. NP599022, amino acid 304–556), and RORβ (Genbank accession no. NP008845, amino acid 201–452) were PCR-amplified and cloned into pET24a (Novagen) for expression in bacteria. All recombinant proteins contained an additional amino acid sequence of […] at the N-terminal of LBD. After transformation of the bacteria strain BL21DE3 GOLD (Agilent) with the plasmids, 10 to 20 L cultures were grown to 1 OD and recombinant protein expression was induced overnight at 16°C with 0.2mM isopropyl-beta-D-thiogalactopyranoside (IPTG) (Corning). […]. His-tagged proteins were collected with Ni-NTA resin (Qiagen) and purified with a HiTrap Q HP column (GE Life Sciences) eluted with a 40 CV gradient of 50-500mM NaCl.
(§4) The ThermoFluor® assay was established to measure the change in protein stability upon binding with compounds. 1-Anilinonaphthalene-8-Sulfonic Acid (1,8-ANS) (Invitrogen) was used as a fluorescent dye to label the test proteins. The assay was performed in polypropylene PCR microplates (TF-0384/k, Abgene) with a final assay of 3 μL reaction mixture per well overlaid with 1 μL silicone oil (Sigma-Aldrich). Assay plates were robotically loaded onto a thermostatically controlled PCR-type thermal block and then heated at a ramp-rate of 1°C/min. Fluorescence emission was initiated by continuous illumination with UV light (LC6, Hamamatsu) via fiber optic with a band-pass filter (380–400 nm) and detected with a CCD camera (Sensys, Roper Scientific) filtered to detect signal of 500 ± 25 nm. Reference wells contained recombinant LBD of RORγt, RORα or RORβ alone, and the assay conditions were as follows: 0.065 mg/mL RORγt LBD, 60 μM 1,8-ANS, 100 mM HEPES pH 7.0, 10 mM NaCl, 2.5 mM GSH, 0.002% Tween- 20; 0.1 mg/mL RORα, 70 μM 1,8-ANS, 25 mM HEPES pH 7.0, 50 mM NaCl, 0.001% Tween-20; 0.08 mg/mL RORβ, 60 μM 1,8-ANS, 50 mM HEPES pH 7.0, 100 mM NaCl, 0.001% Tween-20. All 3 assays were performed in the absence and in the presence of 100 μM co-activator peptide SRC1 ([…], England Peptide custom synthesis). The binding affinity of test compounds was estimated as described previously.

[10] = biological target: T7, RORα LBD (Homo sapiens, UniProt P35398); assay: ThermoFluor binding assay, RORα LBD
T7 construct: made in house; host or cells: E. coli BL21DE3 GOLD, pET24a
T7 sequence (P35398 304-556 isoform P35398-1): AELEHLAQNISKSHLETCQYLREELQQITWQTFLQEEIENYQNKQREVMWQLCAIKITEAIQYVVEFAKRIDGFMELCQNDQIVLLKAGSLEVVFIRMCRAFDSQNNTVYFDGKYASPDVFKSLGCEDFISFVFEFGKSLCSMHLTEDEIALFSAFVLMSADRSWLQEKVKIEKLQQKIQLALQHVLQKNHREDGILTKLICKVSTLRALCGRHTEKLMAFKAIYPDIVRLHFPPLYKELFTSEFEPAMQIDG
Protocol: as §3, §4

[11] = recombinant human LBD, read-out: ThermoFlour Binding Assay (Kd, nM) RORβ
[12] = recombinant human LBD, read-out: ThermoFlour Binding Assay (Kd, nM) RORα

T3 sequence (P14416 1-414 isoform P14416-2): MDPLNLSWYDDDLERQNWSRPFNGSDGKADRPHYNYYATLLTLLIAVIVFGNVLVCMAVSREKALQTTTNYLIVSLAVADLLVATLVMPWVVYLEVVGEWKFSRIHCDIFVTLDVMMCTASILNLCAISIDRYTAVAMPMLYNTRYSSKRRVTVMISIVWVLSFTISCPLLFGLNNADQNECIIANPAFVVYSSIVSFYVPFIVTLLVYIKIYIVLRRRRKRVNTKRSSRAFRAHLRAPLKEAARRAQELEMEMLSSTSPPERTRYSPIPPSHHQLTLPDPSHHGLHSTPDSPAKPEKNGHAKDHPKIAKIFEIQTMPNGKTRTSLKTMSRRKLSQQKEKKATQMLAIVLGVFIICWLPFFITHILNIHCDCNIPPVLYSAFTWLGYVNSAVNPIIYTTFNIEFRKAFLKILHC
T2 sequence (P47898 whole entry): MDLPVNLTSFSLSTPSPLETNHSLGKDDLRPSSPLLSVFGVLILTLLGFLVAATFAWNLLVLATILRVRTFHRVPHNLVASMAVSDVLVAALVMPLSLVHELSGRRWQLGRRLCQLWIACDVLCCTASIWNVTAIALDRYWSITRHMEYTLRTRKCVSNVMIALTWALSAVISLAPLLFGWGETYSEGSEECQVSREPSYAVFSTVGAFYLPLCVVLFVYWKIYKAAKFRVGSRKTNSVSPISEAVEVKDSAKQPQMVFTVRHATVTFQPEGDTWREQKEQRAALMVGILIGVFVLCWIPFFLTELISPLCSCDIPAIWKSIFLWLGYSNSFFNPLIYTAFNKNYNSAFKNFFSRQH
T1 sequence (P20309 whole entry): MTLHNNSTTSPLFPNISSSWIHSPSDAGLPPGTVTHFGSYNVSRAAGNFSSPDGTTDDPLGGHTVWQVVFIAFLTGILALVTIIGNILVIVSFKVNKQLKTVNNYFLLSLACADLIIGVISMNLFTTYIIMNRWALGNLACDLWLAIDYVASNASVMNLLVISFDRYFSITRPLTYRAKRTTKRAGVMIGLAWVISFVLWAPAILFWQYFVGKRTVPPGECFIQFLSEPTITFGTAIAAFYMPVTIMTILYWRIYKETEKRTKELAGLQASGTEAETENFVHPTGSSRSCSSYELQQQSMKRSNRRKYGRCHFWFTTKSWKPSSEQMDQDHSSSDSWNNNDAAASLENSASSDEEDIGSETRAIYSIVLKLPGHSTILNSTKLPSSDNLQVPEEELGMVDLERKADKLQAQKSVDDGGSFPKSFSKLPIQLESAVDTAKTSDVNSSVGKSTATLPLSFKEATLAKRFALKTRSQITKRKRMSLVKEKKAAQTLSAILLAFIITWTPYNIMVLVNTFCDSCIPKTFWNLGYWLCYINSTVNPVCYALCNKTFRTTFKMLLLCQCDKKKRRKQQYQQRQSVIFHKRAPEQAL
T4 sequence (P41143 whole entry): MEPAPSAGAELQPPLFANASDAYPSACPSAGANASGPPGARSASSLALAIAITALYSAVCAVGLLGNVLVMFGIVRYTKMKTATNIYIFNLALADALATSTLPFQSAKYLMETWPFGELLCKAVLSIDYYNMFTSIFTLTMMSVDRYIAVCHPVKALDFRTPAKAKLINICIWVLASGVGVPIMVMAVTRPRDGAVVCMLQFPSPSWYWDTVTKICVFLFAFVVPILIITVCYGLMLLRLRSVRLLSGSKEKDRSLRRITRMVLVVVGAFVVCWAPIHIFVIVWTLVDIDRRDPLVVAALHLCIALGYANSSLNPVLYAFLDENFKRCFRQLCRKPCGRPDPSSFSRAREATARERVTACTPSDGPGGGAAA

SMILES | % Inhibition at 10µM [1] [%] | % Inhibition at 10µM [2] [%] | % Inhibition at 1µM [3] [%] | % Inhibition at 10µM [3] [%] | Kd [9, 11] [nM] | Kd [10, 12] [nM] | % Inhibition at 1µM [2] [%] | inhibition at 1 µM [4] [%] | inhibition at 10 µM [4] [%] | inhibition at 1 µM [5] [%] | inhibition at 10 µM [5] [%] | inhibition at 1 µM [6] [%] | inhibition at 1 µM [7] [%] | inhibition at 10 µM [7] [%] | Kd [9] [nM] | Kd [10] [nM] | inhibition at 10 µM [8] [%] | further results
COc1nc2ccc([C@@](O)(c3ccc(C)nc3C)c3cnnn3C)cc2c(Cl)c1Cc1ccc(C(F)(F)F)cc1 [compound A] | 37 | 39 | 26 | 87 | 4940 | 166 |  |  |  |  |  |  |  |  |  |  |  | % Inhibition at 1µM ([1]; 1 µM): 9%; inhibition at 10 µM ([4]; M3 (h), 10 µM): 63%; inhibition at 1 µM ([5]; 5HT5A (h), 1 µM): 7%; inhibition at 10 µM ([5]; 5HT5A (h), 10 µM): 84%; inhibition at 1 µM ([6]; D2S (h), 1 µM): 12%; inhibition at 10 µM ([6]; D2S (h), 10 µM): 70%; inhibition at 1 µM ([7]; OP1 (h), 1 µM): 9%; inhibition at 10 µM ([7]; OP1 (h), 10 µM): 27%; inhibition at 10 µM ([8]; CXCR2 (h), 10 µM): 12%
COc1nc2ccc([C@](O)(c3ccc(Cl)cc3)c3cncn3C)cc2c(Cl)c1Cc1ccc(-n2cccn2)cc1 [B] | 10 | 38 | 24 | 66 |  |  | 13 | 1 | 15 | 25 | 31 | 7 | 6 | 2 | > 29900 | > 19600 |  | 
COc1nc2ccc([C@@](O)(c3ccccc3)C3CCN(C(C)=O)CC3)cc2c(Cl)c1Cc1ccc(-n2cccn2)cc1 [C] | 12 | 27 | 16 | 45 | > 70000 | > 70000 | 4 | 21 | 19 | 13 | 23 | 10 | 9 | 11 |  |  | 10 | 
CN(C)c1nc2ccc(C(O)(c3ccncc3)c3cncn3C)cc2c(Cl)c1-c1ccccc1 (centres unmarked) [compound D] |  |  |  |  |  |  |  | 33 | 70 |  | 42 | 7 |  | 36 | 1240 | 192 | 17 | inhibition at 10 µM [6]: 25%
